Measured values published in PubChem BioAssay AID2387 (Broad Institute, 2010).
Active and inactive are the calls of the source.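 The calls were made as follows: active = fitted EC50 no more than tenfold above the highest tested concentration; inconclusive = flat fit with 30 to 70% signal loss, or poor fit; inactive = the rest.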

test system: Candida albicans CaCi-2 growth (no fluconazole), Alamar Blue; assay: C. albicans growth inhibition without fluconazole, dose response, counter-screen for fluconazole resistance reversal project, CaCi-2 strain, Alamar Blue fluorescence (AID 2387); conditions: C. albicans CaCi-2 (fluconazole-resistant clinical isolate) growth without fluconazole, 48 h

Compound	EC50
COC(=O)c1ccc(COc2ccc(/C=C(\C#N)c3nc4ccccc4[nH]3)cc2OC)o1	> 16 µM (inactive)
CCCCCCOC(=O)C[N+](C)(C)CCOC1CC2CCC1(C)C2(C)C (centres undefined)	> 16 µM (inactive)
Clc1ccc(CONc2ncnc3nonc23)c(Cl)c1	> 16 µM (inactive)
CC1(C)COCN1S(=O)(=O)c1ccc(C(=O)Nc2nnc(-c3ccc(Cl)s3)o2)cc1	> 16 µM (inactive)
COc1cccc(C2CC(c3ccc(NS(C)(=O)=O)cc3)=NN2C(=O)c2ccccc2)c1OC (centres undefined)	> 15 µM (inactive)
O=[N+]([O-])c1cc(CN2CCN(c3ccccc3)CC2)c(O)c2ncccc12	6.17 µM
Oc1c(Br)cc(Br)cc1/C=N/Nc1ccc(Cl)nn1	> 16 µM (inactive)
COc1ccccc1OCC(=O)N/N=C/C=C/c1ccc([N+](=O)[O-])o1	> 16 µM (inactive)
O=C(NC(Nc1nc2ccc([N+](=O)[O-])cc2s1)(C(F)(F)F)C(F)(F)F)c1ccccc1Cl	> 16 µM (inactive)
O=Cc1ccc(O)c2ncccc12	6.24 µM
COc1ccc(-n2nc(C(=O)NCC(=O)N3CCN(c4ccccc4)CC3)c3ccccc3c2=O)c(OC)c1	> 16 µM (inactive)
COc1ccc(-c2nnc(NC(=O)c3ccc(S(=O)(=O)N4CCc5ccccc5C4)cc3)o2)cc1	> 15 µM (inactive)
Cc1ccnc(Sc2ccc([N+](=O)[O-])cc2[N+](=O)[O-])n1	> 15 µM (inactive)
CCn1c(Sc2nc(C)nc3scc(-c4cccs4)c23)n[nH]c1=O	> 16 µM (inactive)
Cc1nnc(NC(=O)CSc2ncnc3c2cnn3-c2ccccc2C)s1	> 15 µM (inactive)
O=C(/C(=N/N=C/c1ccc(O)c(O)c1O)c1ccccc1)c1ccccc1	> 15 µM (inactive)
O=C(NNC1=C(C(=O)C(F)(F)F)CCC1)c1ccc(Cl)cc1	> 15 µM (inactive)
CC(C)(C)c1ccc(CSc2cnn(C(C)(C)C)c(=O)c2Cl)cc1	> 16 µM (inactive)
Cc1cc(Br)ccc1OCC(=O)NNC(=O)C(=O)Nc1ccccc1	> 15 µM (inactive)
Cc1nc2ccccc2cc1OCc1ccc(F)cc1	> 16 µM (inactive)

Compound	EC50
Cc1cccc(C(=O)NNC2=C(C(=O)C(F)(F)F)CCC2)c1O	> 16 µM (inactive)
COc1ccc(-n2nc(C(=O)NCC(=O)NCCC3=CCCCC3)c3ccccc3c2=O)c(OC)c1	> 15 µM (inactive)
O=C(NNC1=C(C(=O)C(F)(F)F)CCC1)c1ccc(Br)cc1	> 15 µM (inactive)
CC1CCN(Cc2c(C(=O)N/N=C/c3cc(Br)ccc3O)nnn2-c2nonc2N)CC1	> 16 µM (inactive)
Cc1cc(Nc2ccccc2)nc(NCc2ccccc2)n1	> 15 µM (inactive)
O=C(CCS(=O)(=O)c1ccc(F)cc1)Nc1nc(-c2ccncc2)cs1	> 15 µM (inactive)
O=C(NCc1ccccc1)c1sc(=S)n2c1[nH]c(=O)c1ccccc12	> 15 µM (inactive)
O=C(Nc1sc2c(c1C(=O)c1ccc(Cl)cc1)CCCC2)c1cccnc1	> 15 µM (inactive)
C/C(=N\NC(=O)c1cc2ccccc2cc1O)c1ccccn1	9.98 µM
N/C(Cc1ccc(Cl)c(Cl)c1)=N\OC(=O)c1cccs1	> 16 µM (inactive)
O=C(Cc1nc2ccccc2s1)c1ccc(O)cc1O	> 16 µM (inactive)
CCc1cc(-c2n[nH]c(=S)n2-c2ccccc2C)cs1	> 16 µM (inactive)
CC(C)CCN1C(=O)c2ccc(C(=O)Nc3ccc(Br)cc3C(=O)O)cc2C1=O	> 16 µM (inactive)
CCc1cc(C(=O)NNC(=S)Nc2cc(C)ccc2C)cs1	> 15 µM (inactive)
COc1ccc(C)cc1N=Nc1ccc(O)c2ncccc12	2.77 µM
CCCCCCSc1nnc2[nH]c(=O)cc(N)n12	> 15 µM (inactive)
COc1ccc(-c2nnc(NC(=O)c3cc(Cl)ccc3Cl)o2)cc1	> 15 µM (inactive)
O=[N+]([O-])c1ccc(O)c(P(=O)(c2ccccc2)c2ccccc2)c1	> 15 µM (inactive)
COc1ccc(-c2nnc(NC(=O)c3ccc(F)cc3)o2)cc1	> 15 µM (inactive)
